Measured values taken from patent publication US6376617B1, “Bioactive derivatives of camptothecin” (Pharmacia & Upjohn S.p.A., priority 1997, dated 2002).

Test system: human colon carcinoma (HT29)
Experiment: Antitumor activity on human colon carcinoma (HT29) transplanted in nude mice
Settings: HT29 sc in nude mice; for TI% 46th day (tumor inhibition %): day 46
Protocol: Tumor fragment were implanted sc. Treatment started when tumor was palpable. TI % (tumor inhibition %) was calculated at day 46.

[1] = iv q4dx6, dose 20 mg/kg, total dose 120 mg/kg

Row | Molecule | Tox [1] | TI% 46th day (tumor inhibition %) [1] [%] | TI% 46th day (tumor inhibition %) (iv q4dx8, dose 5 mg/kg, total dose 40 mg/kg) [%] | TI% 46th day (tumor inhibition %) (iv q4dx8, dose 10 mg/kg, total dose 80 mg/kg) [%] | TI% 46th day (tumor inhibition %) (iv q4dx8, dose 20 mg/kg, total dose 160 mg/kg) [%]
1 | CCc1c2c(nc3ccc(O)cc13)-c1cc3c(c(=O)n1C2)COC(=O)[C@]3(O)CC [1a, 7-ethyl-10-hydroxycamptothecin, reference compound] | 1/7 | 97 | – | – | –
2 | copolymer of N-(2-hydroxypropyl)methacrylamide, {7-ethyl-10-hydroxy-20-O-[N-methacryloyl-glycyl-L-phenylalanyl-L-leucyl-glycyl]camptothecin} and N-(2-hydroxypropyl)methacryloylglycinamide [A1] | – | – | 77 | 91 | 98
